Measurements from patent US12258342B2, “Class of DNA gyrase and/or topoisomerase IV inhibitors with activity against gram-positive and gram-negative bacteria” (Univerza v Ljubljani, priority 2018, dated 2025).
Converted amounts (≈) assume the structure as drawn.

What was measured:
E. coli DNA gyrase = E. coli DNA gyrase (Escherichia coli (strain K12), UniProt P0AES6); assay: DNA gyrase inhibition assay (Inspiralis, streptavidin-coated plates); assay type: biochemical
Procedure: Inhibitory activities for compounds of the present invention were determined on E. coli and S. aureus DNA gyrase and topoisomerase IV in an assay from Inspiralis on streptavidin-coated 96-well microtiter plates from Thermo scientific Pierce. […] After washing off the unbound oligonucleotide, the enzyme test was performed. […] Reaction solutions were incubated at 37° C. for 30 min. After that, the TF buffer (50 mM NaOAc with pH 5.0, 50 mM NaCl and 50 mM MgCl2) was added to terminate the enzymatic reaction. After additional incubation for 30 min at rt, during which biotin-oligonucleotide-plasmid triplex was formed, the unbound plasmid was washed off using TF buffer and SybrGOLD in T10 buffer (10 mM Tris HCl with pH 8.0 and 1 mM EDTA) was added. […] GraphPad Prism 6.0 software was used to calculate the IC50 values. The result is given as the average value of three independent measurements. […] Chemoth.

S. aureus ATCC 29213 = assay: Microbroth dilution MIC (CLSI); settings: Staphylococcus aureus, ATCC29213, read-out: MIC (μg/mL) S. aureus ATCC 29213
E. faecium ATCC 35667 = assay: Microbroth dilution MIC (CLSI); settings: Enterococcus faecium, ATCC35667, read-out: MIC (μg/mL) E. faecium ATCC 35667
E. coli ATCC 25922 = assay: Microbroth dilution MIC (CLSI); settings: Escherichia coli, ATCC25922, read-out: MIC (μg/mL) E. coli ATCC 25922
E. faecalis ATCC 29212 = assay: Microbroth dilution MIC (CLSI); settings: Enterococcus faecalis, ATCC29212, read-out: MIC (μg/mL) E. faecalis ATCC 29212

Row | Compound | IC50 (E. coli DNA gyrase) [nM] | MIC (S. aureus ATCC 29213) [µg/mL] | MIC (E. faecium ATCC 35667) [µg/mL] | MIC (E. coli ATCC 25922) [µg/mL] | MIC (E. faecalis ATCC 29212) [µg/mL]
1 | O=C(OCc1cc(=O)c(O)c[nH]1)c1ccc2nc(NC(=O)c3cc(Br)c(Br)[nH]3)sc2c1 [Example 40, (5-hydroxy-4-oxo-1,4-dihydropyridin-2-yl)methyl 2-(4,5-dibromo-1H-pyrrole-2-carboxamido)benzo[d]thiazole-6-carboxylate] | 1700 ± 360 | > 64 | > 64 | > 64 | –
2 | Cc1[nH]c(C(=O)Nc2nc3c(OCCN4CCOCC4)cc(C(=O)NCC#N)cc3s2)c(Cl)c1Cl.Cl [Example 25, 4-(2-((6-((cyanomethyl)carbamoyl)-2-(3,4-dichloro-5-methyl-1H-pyrrole-2-carboxamido)benzo[d]thiazol-4-yl)oxy)ethyl)morpholin-4-ium chloride] | < 5 | > 64 | – | > 64 | > 64
3 | Cc1[nH]c(C(=O)N(c2nc3ccc(C(=O)O)cc3s2)C(C)C)c(Cl)c1Cl [Example 41, 2-(3,4-dichloro-N-isopropyl-5-methyl-1H-pyrrole-2-carboxamido)benzo[d]thiazole-6-carboxylic acid] | 320 ± 70 | 32 (≈ 77.6 µM) | – | ≥ 32 | 32 (≈ 77.6 µM)
4 | CCN(C(=O)c1[nH]c(C)c(Cl)c1Cl)c1nc2ccc(C(=O)O)cc2s1 [Example 43, 2-(3,4-dichloro-N-ethyl-5-methyl-1H-pyrrole-2-carboxamido)benzo[d]thiazole-6-carboxylic acid] | 7.2 ± 2 | 0.13 (≈ 0.326 µM) | – | 32 (≈ 80.3 µM) | 0.13 (≈ 0.326 µM)
5 | O=C(O)CCNC(=O)c1ccc2nc(NC(=O)c3cc(Br)c(Br)[nH]3)sc2c1 [Example 21, 3-(2-(4,5-dibromo-1H-pyrrole-2-carboxamido)benzo[d]thiazole-6-carboxamido)propanoic acid] | 12 ± 5 | > 64 | > 64 | > 64 | > 64
6 | Cc1[nH]c(C(=O)N(c2nc3ccc(C(=O)O)cc3s2)C2CC2)c(Cl)c1Cl [Example 42, 2-(3,4-dichloro-N-cyclopropyl-5-methyl-1H-pyrrole-2-carboxamido)benzo[d]thiazole-6-carboxylic acid] | 24 ± 1 | 2 (≈ 4.87 µM) | – | > 64 | 0.25 (≈ 0.609 µM)
7 | Cc1[nH]c(C(=O)Nc2nc3c(O)cc(C(=O)O)cc3s2)c(Cl)c1Cl [Example 7, 2-(3,4-dichloro-5-methyl-1H-pyrrole-2-carboxamido)-4-hydroxybenzo[d]thiazole-6-carboxylic acid] | < 5 | 16 (≈ 41.4 µM) | 1.21 (≈ 3.13 µM) | > 64 | 2 (≈ 5.18 µM)
8 | O=C(O)c1cc(OCc2cc(=O)c(O)c[nH]2)c2nc(NC(=O)c3cc(Br)c(Br)[nH]3)sc2c1 [Example 38, 2-(4,5-dibromo-1H-pyrrole-2-carboxamido)-4-((5-hydroxy-4-oxo-1,4-dihydropyridin-2-yl)methoxy)benzo[d]thiazole-6-carboxylic acid] | – | > 64 | – | > 64 | > 64
9 | O=C(O)c1ccc2nc(NC(=O)c3cc(Br)c(Br)[nH]3)sc2c1 [Example 2, 2-(4,5-dibromo-1H-pyrrole-2-carboxamido)benzo[d]thiazole-6-carboxylic acid] | 12 ± 7 | > 64 | 5.56 (≈ 12.5 µM) | > 64 | 2.78 (≈ 6.25 µM)
10 | Cc1[nH]c(C(=O)Nc2nc3ccc(-c4nnn[nH]4)cc3s2)c(Cl)c1Cl [Example 17, N-(6-(1H-tetrazol-5-yl)benzo[d]thiazol-2-yl)-3,4-dichloro-5-methyl-1H-pyrrole-2-carboxamide] | < 5 | 16 (≈ 40.6 µM) | 1.23 (≈ 3.12 µM) | > 64 | 1 (≈ 2.54 µM)
11 | Cc1[nH]c(C(=O)Nc2nc3ccc(C(N)=O)cc3s2)c(Cl)c1Cl [Example 18, 2-(3,4-dichloro-5-methyl-1H-pyrrole-2-carboxamido)benzo[d]thiazole-6-carboxamide] | 11 ± 2 | 1.16 (≈ 3.14 µM) | > 64 | > 64 | > 64
12 | Cc1[nH]c(C(=O)N(Cc2ccccc2)c2nc3ccc(C(=O)O)cc3s2)c(Cl)c1Cl [Example 16, 2-(N-benzyl-3,4-dichloro-5-methyl-1H-pyrrole-2-carboxamido)benzo[d]thiazole-6-carboxylic acid] | < 5 | ≤ 0.0312 | 0.36 (≈ 0.782 µM) | 64 (≈ 139 µM) | ≤ 0.0312
13 | Cc1[nH]c(C(=O)Nc2nc3c(N4CC[C@H](N)C4)cc(C(=O)O)cc3s2)c(Cl)c1Cl.Cl [Example 36, (S)-1-(6-carboxy-2-(3,4-dichloro-5-methyl-1H-pyrrole-2-carboxamido)benzo[d]thiazol-4-yl)pyrrolidin-3-aminium chloride] | < 5 | 4 | – | ≥ 32 | 0.5
14 | O=C(OCc1cc(=O)c(O)co1)c1ccc2nc(NC(=O)c3cc(Br)c(Br)[nH]3)sc2c1 [Example 39, (5-hydroxy-4-oxo-4H-pyran-2-yl)methyl 2-(4,5-dibromo-1H-pyrrole-2-carboxamido)benzo[d]thiazole-6-carboxylate] | 1400 ± 20 | > 64 | > 64 | > 64 | –
15 | Cc1[nH]c(C(=O)Nc2nc3c(OCc4ccccc4)cc(C(=O)NCC#N)cc3s2)c(Cl)c1Cl [Example 27, 4-(benzyloxy)-N-(cyanomethyl)-2-(3,4-dichloro-5-methyl-1H-pyrrole-2-carboxamido)benzo[d]thiazole-6-carboxamide] | 5.4 ± 2 | 4 (≈ 7.78 µM) | – | > 64 | 16 (≈ 31.1 µM)
16 | Cc1[nH]c(C(=O)Nc2nc3c(OCc4ccccc4)cc(C(N)=O)cc3s2)c(Cl)c1Cl [Example 28, 4-(benzyloxy)-2-(3,4-dichloro-5-methyl-1H-pyrrole-2-carboxamido)benzo[d]thiazole-6-carboxamide] | 11 ± 2 | > 64 | – | > 64 | > 64
17 | Cc1[nH]c(C(=O)Nc2nc3ccc(C(=O)NO)cc3s2)c(Cl)c1Cl [Example 20, 2-(3,4-dichloro-5-methyl-1H-pyrrole-2-carboxamido)-N-hydroxybenzo[d]thiazole-6-carboxamide] | 280 ± 10 | 64 (≈ 166 µM) | 38.5 (≈ 100 µM) | > 64 | 0.5 (≈ 1.3 µM)
18 | O=C(NO)c1ccc2nc(NC(=O)c3cc(Br)c(Br)[nH]3)sc2c1 [Example 19, 2-(4,5-dibromo-1H-pyrrole-2-carboxamido)-N-hydroxybenzo[d]thiazole-6-carboxamide] | 89 ± 20 | > 64 | > 64 | > 64 | 64 (≈ 139 µM)
19 | Cc1[nH]c(C(=O)Nc2nc3ccc(C(=O)NCC#N)cc3s2)c(Cl)c1Cl [Example 26, N-(cyanomethyl)-2-(3,4-dichloro-5-methyl-1H-pyrrole-2-carboxamido)benzo[d]thiazole-6-carboxamide] | 16 ± 4 | > 64 | – | > 64 | > 64
20 | Cc1[nH]c(C(=O)Nc2nc3c(OCc4ccccc4)cc(-c4nnn[nH]4)cc3s2)c(Cl)c1Cl [Example 29, N-(4-(benzyloxy)-6-(1H-tetrazol-5-yl)benzo[d]thiazol-2-yl)-3,4-dichloro-5-methyl-1H-pyrrole-2-carboxamide] | – | 4 (≈ 7.99 µM) | – | > 64 | 0.125 (≈ 0.25 µM)
21 | Cc1[nH]c(C(=O)Nc2nc3ccc(C(=O)O)cc3s2)c(Cl)c1Br [Example 45, 2-(4-bromo-3-chloro-5-methyl-1H-pyrrole-2-carboxamido) benzo[d]thiazole-6-carboxylic acid] | < 5 | 0.13 (≈ 0.314 µM) | – | > 64 | 0.0625 (≈ 0.151 µM)
22 | Cc1[nH]c(C(=O)Nc2nc3c(N4CC[C@H](NC(=O)OC(C)(C)C)C4)cc(C(=O)O)cc3s2)c(Cl)c1Cl [Example 35, (S)-4-(3-((tert-butoxycarbonyl)amino)pyrrolidin-1-yl)-2-(3,4-dichloro-5-methyl-1H-pyrrole-2-carboxamido)benzo[d]thiazole-6-carboxylic acid] | < 5 | 0.25 (≈ 0.451 µM) | – | ≥ 32 | 0.0312 (≈ 0.0564 µM)
23 | COC(=O)c1cc(N2CC[C@H](N)C2)c2nc(NC(=O)c3[nH]c(C)c(Cl)c3Cl)sc2c1.Cl [Example 34, (S)-1-(2-(3,4-dichloro-5-methyl-1H-pyrrole-2-carboxamido)-6-(methoxycarbonyl)benzo[d]thiazol-4-yl)pyrrolidin-3-aminium chloride] | 48 ± 9 | ≥ 32 | – | ≥ 32 | ≥ 32
24 | COC(=O)c1cc(N2CC[C@H](NC(=O)OC(C)(C)C)C2)c2nc(NC(=O)c3[nH]c(C)c(Cl)c3Cl)sc2c1 [Example 33, methyl (S)-4-(3-((tert-butoxycarbonyl)amino)pyrrolidin-1-yl)-2-(3,4-dichloro-5-methyl-1H-pyrrole-2-carboxamido)benzo[d]thiazole-6-carboxylate] | > 10000 | ≥ 32 | – | ≥ 32 | ≥ 32
